Results reported in patent US10889562B2, “Prodrugs of Nrf2 activating compounds and uses thereof” (Rigel Pharmaceuticals, Inc., priority 2018, dated 2021).

Legend:
[1] = Glutathione depletion assay (Michael reaction with reduced glutathione followed by 1H NMR); settings: 2 equiv. reduced glutathione, d6-DMSO, 35° C.
Source text: Accordingly, the present compounds may be assessed in vitro by reaction with glutathione as follows:
(with the top securely fastened).
In all the above cases, dis-appearance of the alkene proton signals from the starting material are used to determine the extent of Michael reaction with glutathione.
As would be understood by those of skill in the art, the above experiments can be repeated by varying the equivalents of reduced glutathione (0.5 to 2 equivalents); the reactions can also be run in a mixture of d6-DMSO and D2O; and the temperature of the reaction can also be varied from room temperature to 35° C. (35° C. being used to mimic body temperature). As used herein “majority reaction” means a greater than 50% reduction in alkene proton signal as observed by ^1H NMR.

[2] = test system: experimental autoimmune encephalomyelitis (EAE); experiment: Experimental autoimmune encephalomyelitis (EAE) animal model; assay type: in vivo, mice (C57BL/6); settings: mice, dosed at 60 mg/kg beginning on the day of immunization
[3] = test system: NrF2 (Nuclear factor (erythroid-derived 2)-like 2); experiment: NrF2 activation in a whole cell nuclear translocation assay; assay type: cell-based
Protocol: Compounds are tested in a NrF2 (Nuclear factor (erythroid-derived 2)-like 2) translocation assay by adapting the methods set forth in U.S. Pat. No. 8,101,373, the disclosure of which is incorporated herein by reference. A result of NrF2 activation in the assay by the present compounds is an indication of their anti-inflammatory activity.
In addition to monomethyl fumarate and dimethyl fumarate, bardoxolone methyl may be used as a positive control.

SMILES | time to majority reaction with glutathione (greater than 50% reduction in alkene proton signal by 1H NMR) [1] | onset of disease paralysis [2] | EC50 [3]
COC(=O)/C=C/n1nn[nH]c1=O [methyl (E)-3-(5-oxo-4,5-dihydro-1H-tetrazol-1-yl)acrylate] | ≤ 30 h | significantly prevents the onset of disease paralysis | –
COC(=O)/C=C/n1nnn(C)c1=O [methyl (E)-3-(4-methyl-5-oxo-4,5-dihydro-1H-tetrazol-1-yl)acrylate] | ≤ 30 h | – | –
COC(=O)/C=C/C(=O)O [monomethylfumarate] | – | – | ~127 µM
